In US11242337B2, “Compounds useful for treating gastrointestinal tract disorders” (Ardelyx, Inc., priority 2017, dated 2022):

Experiments:
NHE3 [1] = biological target: T1, NHE3 (Homo sapiens, UniProt P48764); experiment: Cell-based assay of NHE-3 activity (persistent inhibition), human; details: human Persistence, 60 min incubation then washout
T1 construct: expressed in transfected cells
T1 sequence (P48764 26-834): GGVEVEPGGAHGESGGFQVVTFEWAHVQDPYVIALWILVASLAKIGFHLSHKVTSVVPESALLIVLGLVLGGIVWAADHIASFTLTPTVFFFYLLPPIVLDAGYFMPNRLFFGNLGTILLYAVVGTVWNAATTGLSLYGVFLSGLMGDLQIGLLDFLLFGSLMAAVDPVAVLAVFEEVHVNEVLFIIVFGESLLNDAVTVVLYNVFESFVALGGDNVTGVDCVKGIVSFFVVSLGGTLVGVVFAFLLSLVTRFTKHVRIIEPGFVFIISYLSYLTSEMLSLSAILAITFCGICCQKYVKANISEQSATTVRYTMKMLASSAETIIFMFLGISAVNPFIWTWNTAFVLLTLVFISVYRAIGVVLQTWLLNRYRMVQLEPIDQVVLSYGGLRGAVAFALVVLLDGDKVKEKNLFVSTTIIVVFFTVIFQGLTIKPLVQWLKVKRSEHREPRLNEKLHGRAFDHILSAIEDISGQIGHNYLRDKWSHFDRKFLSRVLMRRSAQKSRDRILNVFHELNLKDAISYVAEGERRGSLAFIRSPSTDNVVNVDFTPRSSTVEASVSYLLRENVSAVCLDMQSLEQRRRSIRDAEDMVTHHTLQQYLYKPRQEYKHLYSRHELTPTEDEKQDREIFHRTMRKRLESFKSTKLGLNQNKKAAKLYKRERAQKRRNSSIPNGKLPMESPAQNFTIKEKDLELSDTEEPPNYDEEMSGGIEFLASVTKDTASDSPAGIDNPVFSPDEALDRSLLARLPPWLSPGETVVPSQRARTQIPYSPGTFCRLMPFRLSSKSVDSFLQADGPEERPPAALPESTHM
T1 sequence (Q99653 2-195 partner limits assumed): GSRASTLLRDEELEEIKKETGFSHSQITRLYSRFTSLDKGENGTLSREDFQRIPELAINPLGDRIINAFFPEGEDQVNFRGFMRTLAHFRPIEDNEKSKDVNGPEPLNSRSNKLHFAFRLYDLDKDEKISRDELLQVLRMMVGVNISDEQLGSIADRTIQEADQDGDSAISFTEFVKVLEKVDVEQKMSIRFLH
Summary of the method: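 PS120 fibroblasts expressing human NHE3 with NHERF2 exposed to 0-30 μM compound for 60 min at RT, then washed out; cells acid-loaded by NH4Cl prepulse with BCECF-AM and Na+-free buffer. Na+-driven pH recovery started 10 min post-washout; initial rate of BCECF ratio change (FLIPR) taken as activity.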

NHE3 [2] = biological target: T1, NHE3; experiment: Cell-based assay of NHE-3 activity (pre-incubation inhibition), human; details: human Preincubation; for IC50 / pIC50: 0-30 μM test compound
Summary of the method: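 PS120 fibroblasts stably expressing human NHE3 and NHERF2, loaded 30 min at 37 °C with 5 μM BCECF-AM in NH4Cl buffer, then acidified 10 min at room temperature in Na+-free buffer with 0–30 μM compound. Initial rate of BCECF fluorescence ratio change (FLIPR) per minute taken as Na+/H+ activity.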

SMILES | % inhibition (NHE3 [1]) | IC50 (NHE3 [1]) [µM] | % inhibition (NHE3 [2]) | IC50 (NHE3 [2]) [µM] | pIC50 (NHE3 [1]) | pIC50 (NHE3 [2])
NC1CCCN(C2Cc3c(Cl)cc(Cl)cc3C2Oc2ccc(S(=O)(=O)NCCOCCOCCn3cc(CNC(=O)C(O)C(O)C(O)C(O)C(=O)NCc4cn(CCOCCOCCNS(=O)(=O)c5ccc(OC6c7cc(Cl)cc(Cl)c7CC6N6CCCC(N)C6)cc5)nn4)nn3)cc2)C1 [Example 57, (2R,3S,4R,5S)—N^1,N^6-Bis([1-[2-(2-[2-[(4-[[(1S,2S)-2-[(3R)-3-aminopiperidin-1-yl]-4,6-dichloro-2,3-dihydro-1H-inden-1-yl]oxy]benzene)sulfonamido]ethoxy]ethoxy)ethyl]-1H-1,2,3-triazol-4-yl]methyl)-2,3,4,5-tetrahydroxyhexanediamide] |  |  |  |  | C (NHE3 pIC50 > 7) | C (NHE3 pIC50 > 7)
CC1(C)O[C@H]2[C@@H](OC(C)(C)O[C@H]2C(=O)NCc2cn(CCCCNS(=O)(=O)c3ccc(O[C@H]4c5cc(Cl)cc(Cl)c5C[C@@H]4N4CCC[C@@H](N)C4)cc3)nn2)[C@@H](C(=O)NCc2cn(CCCCNS(=O)(=O)c3ccc(O[C@H]4c5cc(Cl)cc(Cl)c5C[C@@H]4N4CCC[C@@H](N)C4)cc3)nn2)O1 [Example 60, (4R,4aS,8S,8aR)—N^4,N^8-Bis([1-(4-[4-((1S,2S)-2-[(3R)-3-aminopiperidin-1-yl]-4,6-dichloro-2,3-dihydro-1H-inden-1-yloxy)phenylsulfonamide]butyl)-1H-1,2,3-traizol-4-yl]methyl)-2,2,6,6-tetramethyl-tetrahydro-[1,3]dioxino[5,4-d][1,3]dioxine-4,8-dicarboxamide] | C (>70%) |  | C (>70%) |  | C (NHE3 pIC50 > 7) | C (NHE3 pIC50 > 7)
Cc1cc(S(=O)(=O)NCCCCCCCCNC(=O)NCCCCNC(=O)NCCCCCCCCNS(=O)(=O)c2ccc(O[C@H]3c4cc(Cl)cc(Cl)c4C[C@@H]3N3CCC[C@@H](N)C3)c(C)c2)ccc1O[C@H]1c2cc(Cl)cc(Cl)c2C[C@@H]1N1CCC[C@@H](N)C1 [Example 63, 3-[8-[(4-[[(1S,2S)-2-[(3R)-3-Aminopiperidin-1-yl]-4,6-dichloro-2,3-dihydro-1H-inden-1-yl]oxy]-3-methylbenzene)sulfonamido]octyl]-1-[4-[([8-[(4-[[(1S,2S)-2-[(3R)-3-aminopiperidin-1-yl]-4,6-dichloro-2,3-dihydro-1H-inden-1-yl]oxy]-3-methylbenzene)sulfonamide]octyl]carbamoyl)amino]butyl]urea] | B (40-70%) | 0.1 to 1 | B (40-70%) |  |  | C (NHE3 pIC50 > 7)
CN(C)[C@H]1Cc2c(Cl)cc(Cl)cc2[C@@H]1Oc1ccc(S(=O)(=O)NCCCCCCCCNC(=O)NCCCCNC(=O)NCCCCCCCCNS(=O)(=O)c2ccc(O[C@H]3c4cc(Cl)cc(Cl)c4C[C@@H]3N(C)C)cc2)cc1 [Example 64, 3-[8-[(4-[[(1S,2S)-4,6-Dichloro-2-(diamethylamino)-2,3-dihydro-1H-inden-1-yl]oxy]benzene)sulfonamido]octyl]-1-[4-[([8-[(4-[[(1S,2S)-4,6-dichloro-2-(diamethylamino)-2,3-dihydro-1H-inden-1-yl]oxy]benzene)sulfonamido]octyl]carbamoyl)amino]butyl]urea; bis(trifluoroacetic acid)] | A (NHE3 < 40%) |  | A (NHE3 < 40%) |  |  | 
Cc1cc(S(=O)(=O)NCCCCCCCCNC(=O)NCCCCNC(=O)NCCCCCCCCNS(=O)(=O)c2ccc(O[C@H]3c4cc(Cl)cc(Cl)c4C[C@@H]3N(C)C)c(C)c2)ccc1O[C@H]1c2cc(Cl)cc(Cl)c2C[C@@H]1N(C)C [Example 65, 3-[8-[(4-[[(1S,2S)-4,6-Dichloro-2-(dimethylamino)-2,3-dihydro-1H-inden-1-yl]oxy]-3-methylbenzene)sulfonamido]octyl]-1-[4-[([8-[(4-[[(1S,2S)-4,6-dichloro-2-(dimethylamino)-2,3-dihydro-1H-inden-1-yl]oxy]-3-methylbenzene)sulfonamido]octyl]carbamoyl)amino]butyl]urea] | A (NHE3 < 40%) |  | A (NHE3 < 40%) |  |  | 

Next, values leading:

% inhibition (NHE3 [1]) | IC50 (NHE3 [1]) [µM] | % inhibition (NHE3 [2]) | IC50 (NHE3 [2]) [µM] | pIC50 (NHE3 [1]) | pIC50 (NHE3 [2]) | SMILES
C (>70%) | < 0.1 | C (>70%) | < 0.1 |  |  | N[C@@H]1CCCN([C@H]2Cc3c(Cl)cc(Cl)cc3[C@@H]2Oc2ccc(S(=O)(=O)NCCOCCOCCn3cc(CNC(=O)NCCCCNC(=O)NCc4cn(CCOCCOCCNS(=O)(=O)c5ccc(O[C@H]6c7cc(Cl)cc(Cl)c7C[C@@H]6N6CCC[C@@H](N)C6)cc5)nn4)nn3)cc2)C1 [Example 56, 1-([1-[2-(2-[2-[(4-[[(1S,2S)-2-[(3R)-3-Aminopiperidin-1-yl]-4,6-dichloro-2,3-dihydro-1H-inden-1-yl]oxy]benzene)sulfonamido]ethoxy]ethoxy)ethyl]-1H-1,2,3-triazol-4-yl]methyl)-3-(4-[[([1-[2-(2-[2-[(4-[[(1S,2S)-2-[(3R)-3-aminopiperidin-1-yl]-4,6-dichloro-2,3-dihydro-1H-inden-1-yl]oxy]benzene)sulfonamido]ethoxy]ethoxy)ethyl]-1H-1,2,3-triazol-4-yl]methyl)carbamoyl]amino]butyl)urea]
C (>70%) | < 0.1 | C (>70%) | < 0.1 |  |  | N[C@@H]1CCCN([C@H]2Cc3c(Cl)cc(Cl)cc3[C@@H]2Oc2ccc(S(=O)(=O)NCCCCn3cc(CNC(=O)NCCCCNC(=O)NCc4cn(CCCCNS(=O)(=O)c5ccc(O[C@H]6c7cc(Cl)cc(Cl)c7C[C@@H]6N6CCC[C@@H](N)C6)cc5)nn4)nn3)cc2)C1 [Example 58, 3-[(1-[4-[(4-[[(1S,2S)-2-[(3R)-3-Aminopiperidin-1-yl]-4,6-dichloro-2,3-dihydro-1H-inden-1-yl]oxy]benzene)sulfonamido]butyl]-1H-1,2,3-triazol-4-yl)methyl]-1-[4-([[(1-[4-[(4-[[(1S,2S)-2-[(3R)-3-aminopiperidin-1-yl]-4,6-dichloro-2,3-dihydro-1H-inden-1-yl]oxy]benzene)sulfonamido]butyl]-1H-1,2,3-triazol-4-yl)methyl]carbamoyl]amino)butyl]urea]
C (>70%) |  | C (>70%) |  |  |  | N[C@@H]1CCCN([C@H]2Cc3c(Cl)cc(Cl)cc3[C@@H]2Oc2ccc(S(=O)(=O)NCCCCCCn3cc(CNC(=O)NCCCCNC(=O)NCc4cn(CCCCCCNS(=O)(=O)c5ccc(O[C@H]6c7cc(Cl)cc(Cl)c7C[C@@H]6N6CCC[C@@H](N)C6)cc5)nn4)nn3)cc2)C1 [Example 59, 3-[(1-[6-[(4-[[(1S,2S)-2-[(3R)-3-Aminopiperidin-1-yl]-4,6-dichloro-2,3-dihydro-1H-inden-1-yl]oxy]benzene)sulfonamido]-hexyl]-1H-1,2,3-triazol-4-yl)methyl]-1-[4-([[(1-[6-[(4-[[(1S,2S)-2-[(3R)-3-aminopiperidin-1-yl]-4,6-dichloro-2,3-dihydro-1H-inden-1-yl]oxy]benzene)sulfonamido]hexyl]-1H-1,2,3-triazol-4-yl)methyl]carbamoyl]amino)butyl]urea]
A (NHE3 < 40%) | > 1 | C (>70%) | < 0.1 |  |  | N[C@@H]1CCCN([C@H]2Cc3c(Cl)cc(Cl)cc3[C@@H]2Oc2ccc(S(=O)(=O)NCCCCCCCCNC(=O)NCCCCNC(=O)NCCCCCCCCNS(=O)(=O)c3ccc(O[C@H]4c5cc(Cl)cc(Cl)c5C[C@@H]4N4CCC[C@@H](N)C4)cc3)cc2)C1 [Example 62, 3-[8-[(4-[[(1S,2S)-2-[(3R)-3-Aminopiperidin-1-yl]-4,6-dichloro-2,3-dihydro-1H-inden-1-yl]oxy]benzene)sulfonamido]octyl]-1-[4-[([8-[(4-[[(1S,2S)-2-[(3R)-3-aminopiperidin-1-yl]-4,6-dichloro-2,3-dihydro-1H-inden-1-yl]oxy]benzene)sulfonamido]octyl]carbamoyl)amino]butyl]urea; bis(trifluoroacetic acid)]
